From BigSolDB 2.1

O=C(c1ccc(F)cc1)c1ccc(F)cc1
solubility (mole fraction)
Conditions	in acetone	in acetonitrile	in ethanol	in ethyl acetate	in isobutanol	in isopropanol	in methanol	in methyl acetate	in n-butanol	in n-propanol
293.15 K	0.0915	0.03	0.0084	0.101	0.0097	0.0079	0.0062	0.0956	0.011	0.0103
298.15 K	0.107	0.0386	0.0104	0.117	0.0125	0.0101	0.0076	0.112	0.014	0.0127
303.15 K	0.126	0.0491	0.0129	0.134	0.0158	0.0131	0.0093	0.131	0.0177	0.0159
308.15 K	0.147	0.0631	0.016	0.155	0.02	0.017	0.0114	0.152	0.0225	0.0197
313.15 K	0.172	0.08	0.0197	0.177	0.0255	0.0217	0.0138	0.177	0.0282	0.0246
318.15 K	0.199	0.101	0.0242	0.203	0.0322	0.0276	0.0168	0.205	0.0354	0.0305
323.15 K	0.231	0.126	0.0297	0.231	0.0407	0.0352	0.0204	0.238	0.0444	0.0378
328.15 K	0.266	0.158	0.0364	0.264	0.0511	0.0445	0.0245	0.274	0.0555	0.0467
333.15 K	0.308	0.197	0.0447	0.299	0.0643	0.056	0.0297	0.316	0.0691	0.0576
